Results: PubChem BioAssay (NCI)
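Cells were grown in 96-well plates and exposed to each compound for 48 hours at five concentrations; endpoints were interpolated linearly between bracketing concentrations, or set to the highest concentration if not reached. Abbreviation: GI50, concentration required for 50% inhibition of growth. TGI marks complete inhibition of growth.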

What was measured:
Experiment in all cases: inhibition of tumour cell growth, NCI panel, 48 h
IGROV1 ovarian = system: IGROV1 ovarian
CAKI-1 renal = system: CAKI-1 renal
PC-3 prostate = system: PC-3 prostate
LOX IMVI melanoma = system: LOX IMVI melanoma
MDA-MB-231 breast = system: MDA-MB-231 breast
SK-MEL-28 melanoma = system: SK-MEL-28 melanoma
HOP-62 NSCLC = system: HOP-62 NSCLC
SNB-75 CNS = system: SNB-75 CNS
T-47D breast = system: T-47D breast
NCI-H226 lung = system: NCI-H226 lung

Row | Compound | TGI (IGROV1 ovarian) [µM] | TGI (CAKI-1 renal) [µM] | TGI (PC-3 prostate) [µM] | TGI (LOX IMVI melanoma) [µM] | TGI (MDA-MB-231 breast) [µM] | TGI (SK-MEL-28 melanoma) [µM] | TGI (HOP-62 NSCLC) [µM] | TGI (SNB-75 CNS) [µM] | TGI (T-47D breast) [µM] | GI50 (IGROV1 ovarian) [µM] | GI50 (CAKI-1 renal) [nM] | GI50 (LOX IMVI melanoma) [nM] | GI50 (SK-MEL-28 melanoma) [µM] | GI50 (HOP-62 NSCLC) [µM] | GI50 (SNB-75 CNS) [µM] | GI50 (NCI-H226 lung) [µM] | TGI (NCI-H226 lung) [µM] | GI50 (PC-3 prostate) [µM] | GI50 (MDA-MB-231 breast) [µM] | GI50 (T-47D breast) [µM]
1 | CC12CCCC(O)C1CCC1=CC3(CCC12)SCCS3 (centres undefined) | > 10 | > 10 | > 10 | > 10 | > 10 | > 10 | > 10 | > 10 | > 10 |  |  |  |  |  |  |  |  |  |  | 
2 | CCC[CH2][Sn]1([CH2]CCC)[O]C(=O)C(C(C)C)N=Cc2ccccc2[O]1 (centres undefined) | > 100 | 0.47 |  | 0.401 |  | 0.819 | > 100 | 0.776 |  | 2.21 | 136 | 163 | 0.235 | 3.79 | 0.235 |  |  |  |  | 
3 | N.N.N.N.N.O=C([O-])c1nn[n-]n1.[Cl-].[Co+3] | > 100 | > 100 |  | > 100 |  | > 100 | > 100 | > 100 |  | > 100 | > 100000 | > 100000 | > 100 | > 100 | > 100 | > 100 | > 100 |  |  | 
4 | Nc1ccc(/C=C/c2ccnc3ccccc23)cc1 | > 100 | 63.9 |  |  |  | > 100 | 41.5 | 41.8 |  |  |  |  |  |  |  |  | 47.7 |  |  | 
5 | CC(C)=CCC/C(=C/CC/C(C)=C/CCc1ccoc1)C(=O)O |  |  |  | > 100 |  | > 100 | > 100 | > 100 |  |  |  |  |  |  |  |  | > 100 |  |  | 
6 | COC(=O)C(=O)C(C(=O)C(=O)Nc1ccccc1C(N)=O)c1nc2ccc(Cl)cc2[nH]c1=O (centres undefined) |  | > 100 | > 100 | > 100 | > 100 | > 100 |  | > 100 | > 100 |  |  |  |  |  |  |  | > 100 |  |  | 
7 | NC(N)=NCCCn1c2c(c3ccccc3c1=O)C(=O)c1ccccc1-2 | 22.6 | 49 | > 100 | 28.8 | 46.7 | > 100 | 3.64 | 26.4 | 66.6 | 10.6 | 20300 | 14400 | 28.6 | 0.695 | 5.69 |  |  | 52.1 | 15.8 | 22.9
8 | CC[O-].CC[O-].O=C1c2ccccc2C(=O)c2c(O)ccc([O-])c21.O=C1c2ccccc2C(=O)c2c(O)ccc([O-])c21.[Ti+4] | > 100 | > 100 |  | > 100 |  | > 100 | > 100 | > 100 |  |  |  |  |  |  |  | > 100 | > 100 |  |  | 
9 | COc1c2c(cc3nc4ccccc4nc13)CCC(C(C)(C)O)C2 (centres undefined) | > 100 | > 100 |  | > 100 |  | > 100 | > 100 | > 100 |  |  |  |  |  |  |  |  | > 100 |  |  | 
10 | NC1=NN(c2ccccc2)C(=O)C1C(=O)CCC(=O)Nc1cccc(C(F)(F)F)c1 (centres undefined) | > 100 | > 100 |  | > 100 |  | > 100 | > 100 |  |  |  |  |  |  |  |  |  | > 100 |  |  | 
11 | Cn1cc(C(=O)c2ccccc2)ccc1=O | > 100 | > 100 |  | > 100 |  | > 100 | > 100 | > 100 |  |  |  |  |  |  |  |  | > 100 |  |  | 
12 | O=C(O)CN(c1ccccc1)S(=O)(=O)c1ccccc1[N+](=O)[O-] | > 100 | > 100 |  | > 100 |  | > 100 |  | > 100 |  |  |  |  |  |  |  |  | > 100 |  |  | 
13 | Cc1noc(C)c1CCCOC1COc2ccccc2OCCOCCOc2ccccc2OC1 | > 100 | > 100 |  | > 100 |  | > 100 | > 100 | > 100 |  |  |  |  |  |  |  |  | > 100 |  |  | 
14 | CCCCCCCCCCCCCC1CCC(CC)N1 (centres undefined) | 36.1 | 29.6 |  | 32 |  | 18.6 | 17.9 | 17.7 |  |  |  |  |  |  |  |  | 30.2 |  |  | 
15 | CC1=C(C)CC2(CCCCC2=O)S(=O)C1 (centres undefined) | > 100 |  |  | > 100 |  | > 100 | > 100 | > 100 |  |  |  |  |  |  |  |  | > 100 |  |  | 
16 | Cc1cc(C)nc(NS(=O)(=O)c2ccc(Nc3c4ccccc4nc4c(C(=O)Nc5ccc(S(=O)(=O)Nc6cc(C)on6)cc5)cccc34)cc2)n1 | 77.1 | 46.3 |  | 37.1 |  | 52.3 | 44.2 | 69 |  |  |  |  |  |  |  |  | 46.5 |  |  | 
17 | CCOC1=NC(=O)CC(c2ccccc2)S1 (centres undefined) | > 100 | > 100 |  | > 100 |  |  |  |  |  |  |  |  |  |  |  |  | > 100 |  |  | 
18 | Cc1nc2ccccc2c(=O)n1NC(=O)c1ccccn1 | > 100 |  | > 100 | > 100 | > 100 | > 100 | > 100 | > 100 | > 100 |  |  |  |  |  |  |  |  |  |  | 
19 | COC(=O)c1cc(Br)c(Br)n1C | > 100 | > 100 |  | > 100 |  | > 100 | > 100 | > 100 |  |  |  |  |  |  |  |  | > 100 |  |  | 
20 | N#Cc1nc(C2OC(COC(=O)c3ccccc3)C(OC(=O)c3ccccc3)C2OC(=O)c2ccccc2)oc1N (centres undefined) | > 100 | > 100 |  | > 100 |  | > 100 | > 100 | > 100 |  |  |  |  |  |  |  |  | > 100 |  |  | 
21 | NC(CC(=O)OCc1ccccc1)C(=O)OCc1ccccc1 (centres undefined) | > 100 | > 100 | > 100 | > 100 |  | > 100 | > 100 |  | > 100 |  |  |  |  |  |  |  |  |  |  | 
22 | CC(=O)OC1=NN=C2COC(c3ccccc3OC(C)=O)=NN2C1 | > 50 | > 50 | > 50 | > 50 | > 50 | > 50 | > 50 | > 50 | > 50 |  |  |  |  |  |  |  |  |  |  | 
23 | Cc1ccc(/C(=C/C=C(C#N)C#N)Sc2ccc(Cl)cc2)cc1 |  | 5.3 | 14.7 | 5.98 | 28.4 | 46.8 | 15.6 |  | 56.5 |  | 2030 | 2570 | 10.6 | 6.4 |  |  |  | 3.65 | 10.5 | 18.8
